According to the NIST ThermoML archive (doi:10.1016/j.fluid.2008.03.004):

Assay: xn = mol fraction of the nth substance listed
Settings: 101 kPa, Liquid; for speed of sound: Sing-around technique in a fixed-path interferometer

Cc1ccccc1C [1,2-dimethylbenzene] + COC(C)(C)C
Settings	mass density [kg/m3]	speed of sound [m/s]
288.15 K, x2 = 0	883.36	1381.3
288.15 K, x2 = 0.052	876.722	1374.2
288.15 K, x2 = 0.101	870.811	1361.2
288.15 K, x2 = 0.203	857.652	1332.7
288.15 K, x2 = 0.303	844.603	1302.7
288.15 K, x2 = 0.401	831.766	1274.2
288.15 K, x2 = 0.499	818.201	1243.3
288.15 K, x2 = 0.604	803.537	1212.8
288.15 K, x2 = 0.707	788.841	1179
288.15 K, x2 = 0.8	775.294	1148.4
288.15 K, x2 = 0.9	760.339	1119.5
288.15 K, x2 = 0.95	752.593	1099.1
290.65 K, x2 = 0	881.265	1371.8
290.65 K, x2 = 0.052	874.606	1364.9
290.65 K, x2 = 0.101	868.675	1350.7
290.65 K, x2 = 0.203	855.478	1322.1
290.65 K, x2 = 0.303	842.386	1292
290.65 K, x2 = 0.401	829.505	1263.3
290.65 K, x2 = 0.499	815.897	1232.4
290.65 K, x2 = 0.604	801.177	1201.5
290.65 K, x2 = 0.707	786.421	1167.7
290.65 K, x2 = 0.8	772.825	1136.8
290.65 K, x2 = 0.9	757.801	1107.9
290.65 K, x2 = 0.95	750.025	1087.4
293.15 K, x2 = 0	879.168	1362.2
293.15 K, x2 = 0.052	872.486	1354.8
293.15 K, x2 = 0.101	866.535	1340.3
293.15 K, x2 = 0.203	853.3	1311.6
293.15 K, x2 = 0.303	840.168	1281.4
293.15 K, x2 = 0.401	827.242	1252.5
293.15 K, x2 = 0.499	813.586	1221.6
293.15 K, x2 = 0.604	798.814	1190.3
293.15 K, x2 = 0.707	783.998	1156.6
293.15 K, x2 = 0.8	770.35	1125.5
293.15 K, x2 = 0.9	755.264	1096.5
293.15 K, x2 = 0.95	747.451	1075.9
295.65 K, x2 = 0	877.069	1351.8
295.65 K, x2 = 0.052	870.364	1344.5
295.65 K, x2 = 0.101	864.394	1329.8
295.65 K, x2 = 0.203	851.12	1301.1
295.65 K, x2 = 0.303	837.944	1270.7
295.65 K, x2 = 0.401	824.973	1241.8
295.65 K, x2 = 0.499	811.273	1210.7
295.65 K, x2 = 0.604	796.444	1179.3
295.65 K, x2 = 0.707	781.567	1145.4
295.65 K, x2 = 0.8	767.869	1114.1
295.65 K, x2 = 0.9	752.717	1085.1
295.65 K, x2 = 0.95	744.871	1064.4
298.15 K, x2 = 0	874.968	1341.5
298.15 K, x2 = 0.052	868.242	1334.2
298.15 K, x2 = 0.101	862.253	1319.6
298.15 K, x2 = 0.203	848.937	1290.6
298.15 K, x2 = 0.303	835.714	1260.1
298.15 K, x2 = 0.401	822.702	1231.1
298.15 K, x2 = 0.499	808.953	1199.9
298.15 K, x2 = 0.604	794.069	1168.2
298.15 K, x2 = 0.707	779.131	1134.3
298.15 K, x2 = 0.8	765.379	1102.7
298.15 K, x2 = 0.9	750.16	1073.7
298.15 K, x2 = 0.95	742.284	1052.9
300.65 K, x2 = 0	872.865	1331.2
300.65 K, x2 = 0.052	866.116	1323.9
300.65 K, x2 = 0.101	860.108	1309.4
300.65 K, x2 = 0.203	846.749	1280.2
300.65 K, x2 = 0.303	833.484	1249.6
300.65 K, x2 = 0.401	820.426	1220.3
300.65 K, x2 = 0.499	806.626	1189.1
300.65 K, x2 = 0.604	791.685	1157.2
300.65 K, x2 = 0.707	776.688	1123.2
300.65 K, x2 = 0.8	762.882	1091.4
300.65 K, x2 = 0.9	747.591	1062.2
300.65 K, x2 = 0.95	739.686	1041.5
303.15 K, x2 = 0	870.759	1321
303.15 K, x2 = 0.052	863.985	1313.7
303.15 K, x2 = 0.101	857.959	1299.2
303.15 K, x2 = 0.203	844.558	1269.8
303.15 K, x2 = 0.303	831.25	1239.1
303.15 K, x2 = 0.401	818.144	1209.7
303.15 K, x2 = 0.499	804.296	1178.4
303.15 K, x2 = 0.604	789.298	1146.3
303.15 K, x2 = 0.707	774.237	1112.1
303.15 K, x2 = 0.8	760.378	1080.2
303.15 K, x2 = 0.9	745.002	1050.7
303.15 K, x2 = 0.95	737.076	1030
305.65 K, x2 = 0	868.65	1310.8
305.65 K, x2 = 0.052	861.853	1303.6
305.65 K, x2 = 0.101	855.807	1289
305.65 K, x2 = 0.203	842.365	1259.5
305.65 K, x2 = 0.303	829.01	1228.6
305.65 K, x2 = 0.401	815.857	1199
305.65 K, x2 = 0.499	801.959	1167.7
305.65 K, x2 = 0.604	786.901	1135.3
305.65 K, x2 = 0.707	771.779	1101
305.65 K, x2 = 0.8	757.862	1069
305.65 K, x2 = 0.9	742.391	1038.7
305.65 K, x2 = 0.95	734.452	1018.6
308.15 K, x2 = 0	866.538	1300.7
308.15 K, x2 = 0.052	859.718	1293.5
308.15 K, x2 = 0.101	853.654	1278.9
308.15 K, x2 = 0.203	840.166	1249.1
308.15 K, x2 = 0.303	826.764	1218.2
308.15 K, x2 = 0.401	813.564	1188.5
308.15 K, x2 = 0.499	799.615	1157
308.15 K, x2 = 0.604	784.495	1124.5
308.15 K, x2 = 0.707	769.312	1089.9
308.15 K, x2 = 0.8	755.336	1058
308.15 K, x2 = 0.9	739.788	1026.9
308.15 K, x2 = 0.95	731.817	1007.3
310.65 K, x2 = 0	864.422	1290.6
310.65 K, x2 = 0.052	857.577	1283.5
310.65 K, x2 = 0.101	851.495	1268.9
310.65 K, x2 = 0.203	837.963	1238.9
310.65 K, x2 = 0.303	824.515	1207.9
310.65 K, x2 = 0.401	811.267	1178
310.65 K, x2 = 0.499	797.264	1146.5
310.65 K, x2 = 0.604	782.083	1113.6
310.65 K, x2 = 0.707	766.837	1078.8
310.65 K, x2 = 0.8	752.799	1046.9
310.65 K, x2 = 0.9	737.174	1015.4
310.65 K, x2 = 0.95	729.169	996.05
313.15 K, x2 = 0	862.302	1280.6
313.15 K, x2 = 0.052	855.433	1273.4
313.15 K, x2 = 0.101	849.333	1258.9
313.15 K, x2 = 0.203	835.755	1228.7
313.15 K, x2 = 0.303	822.257	1197.6
313.15 K, x2 = 0.401	808.961	1167.5
313.15 K, x2 = 0.499	794.906	1135.9
313.15 K, x2 = 0.604	779.664	1102.8
313.15 K, x2 = 0.707	764.349	1067.7
313.15 K, x2 = 0.8	750.25	1035.9
313.15 K, x2 = 0.9	734.547	1003.8
313.15 K, x2 = 0.95	726.508	984.72
315.65 K, x2 = 0	860.179	1270.5
315.65 K, x2 = 0.052	853.286	1263.4
315.65 K, x2 = 0.101	847.168	1248.9
315.65 K, x2 = 0.203	833.542	1218.5
315.65 K, x2 = 0.303	819.996	1187.3
315.65 K, x2 = 0.401	806.651	1157.1
315.65 K, x2 = 0.499	792.544	1125.3
315.65 K, x2 = 0.604	777.236	1092
315.65 K, x2 = 0.707	761.858	1056.8
315.65 K, x2 = 0.8	747.693	1024.9
315.65 K, x2 = 0.9	731.912	992.02
315.65 K, x2 = 0.95	723.834	973.42
318.15 K, x2 = 0	858.054	1260.6
318.15 K, x2 = 0.052	851.136	1253.5
318.15 K, x2 = 0.101	845	1239
318.15 K, x2 = 0.203	831.325	1208.4
318.15 K, x2 = 0.303	817.731	1177.1
318.15 K, x2 = 0.401	804.337	1146.7
318.15 K, x2 = 0.499	790.173	1114.9
318.15 K, x2 = 0.604	774.802	1081.2
318.15 K, x2 = 0.707	759.355	1045.8
318.15 K, x2 = 0.8	745.123	1014
318.15 K, x2 = 0.9	729.271	980.41
318.15 K, x2 = 0.95	721.145	962.22
320.65 K, x2 = 0	855.927	1250.7
320.65 K, x2 = 0.052	848.981	1243.6
320.65 K, x2 = 0.101	842.834	1229.1
320.65 K, x2 = 0.203	829.108	1198.3
320.65 K, x2 = 0.303	815.461	1166.9
320.65 K, x2 = 0.401	802.016	1136.4
320.65 K, x2 = 0.499	787.797	1104.4
320.65 K, x2 = 0.604	772.358	1070.5
320.65 K, x2 = 0.707	756.834	1034.8
320.65 K, x2 = 0.8	742.544	1003.2
320.65 K, x2 = 0.9	726.621	968.31
320.65 K, x2 = 0.95	718.446	951.04
323.15 K, x2 = 0	853.803	1240.9
323.15 K, x2 = 0.052	846.833	1233.9
323.15 K, x2 = 0.101	840.678	1219.5
323.15 K, x2 = 0.203	826.892	1188.3
323.15 K, x2 = 0.303	813.194	1156.9
323.15 K, x2 = 0.401	799.699	1126.2
323.15 K, x2 = 0.499	785.421	1094.1
323.15 K, x2 = 0.604	769.917	1059.9
323.15 K, x2 = 0.707	754.356	1024.2
323.15 K, x2 = 0.8	739.964	992.41
323.15 K, x2 = 0.9	723.991	957.28
323.15 K, x2 = 0.95	715.742	940.07
